Experimental data taken from patent publication US12544391B2, “CD73 inhibitors” (ORIC Pharmaceuticals, Inc., priority 2019, dated 2026).

What follows are compounds tested against T1, CD73 (Homo sapiens, UniProt P21589) (assay: CD73 biochemical assay, Malachite Green detection of AMP hydrolysis). Conditions: CD73 320 pM, AMP 15 μM, Malachite Green readout.
T1 sequence (P21589 27-549): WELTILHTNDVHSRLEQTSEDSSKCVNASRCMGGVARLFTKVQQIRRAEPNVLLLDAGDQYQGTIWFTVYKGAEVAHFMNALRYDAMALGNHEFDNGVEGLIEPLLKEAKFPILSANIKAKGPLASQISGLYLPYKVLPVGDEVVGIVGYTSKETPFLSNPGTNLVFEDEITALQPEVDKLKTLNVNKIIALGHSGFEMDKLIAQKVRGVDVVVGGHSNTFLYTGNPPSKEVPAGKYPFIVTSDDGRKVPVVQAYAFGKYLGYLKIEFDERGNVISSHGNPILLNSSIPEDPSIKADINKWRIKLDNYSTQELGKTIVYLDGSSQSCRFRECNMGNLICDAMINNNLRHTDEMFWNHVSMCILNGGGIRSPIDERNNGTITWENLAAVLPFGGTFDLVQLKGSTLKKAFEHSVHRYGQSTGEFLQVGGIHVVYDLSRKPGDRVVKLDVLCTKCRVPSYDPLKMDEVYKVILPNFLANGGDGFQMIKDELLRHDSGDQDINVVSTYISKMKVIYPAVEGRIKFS
Method: Assay Reaction Conditions
• Assay Volume: 70 μl • Reaction Volume: 50 μl • CD73: 0.3208 nM • AMP: 15 μM • Assay Buffer: 2 5 mM Tris-HCL, pH 7.4, 0.01% Brij-35, 0.01% BSA, 5 mM MgCl2 Assay Procedure:
A clear 384 well plate was used in this assay.
Made dose titration of testing compounds in assay buffer, 10 points ½ log titrations in duplicates starting at 100 μM. Total volume for each well was 25 μl, with CD73 then added to each well for a final concentration of 320 pM. The solution was then incubated at RT for 15 min. 25 μl of AMP was added to each well for a final concentration of 15 μM, and then incubated at rt for 10 min. 10 μl of Malachite Green Reagent A was then added and allowed to incubate at rt for 10 min. 10 μl of Malachite Green Reagent B was then added and allowed to incubate at rt for 45 min. The absorbance for each sample was read on an Envision plate reader using excitation filter: Cy5 […].
The ability of the compounds disclosed herein to inhibit CD73 activity was quantified and the respective IC50 values were determined. Table 2 provides the biochemical IC50 values of compounds disclosed herein.

SMILES	IC50 [nM]
COC[C@](COCC(=O)O)(OC[C@H]1O[C@@H](c2ccc3c(NC4CCCC4)nc(Cl)nn23)[C@H](O)[C@@H]1O)P(=O)(O)O [Example 25, 2-((S)-2-(((2R,3S,4R,5S)-5-(2-chloro-4-(cyclopentylamino)pyrrolo[2,1-f][1,2,4]triazin-7-yl)-3,4-dihydroxytetrahydrofuran-2-yl)methoxy)-3-methoxy-2-phosphonopropoxy)acetic acid]	≤ 0.5
O=P(O)(O)[C@@](CO)(COCc1nn[nH]n1)OC[C@H]1O[C@@H](c2ccc3c(NCC4CC4)nc(Cl)nn23)[C@H](O)[C@@H]1O [Example 49, ((S)-1-((2H-tetrazol-5-yl)methoxy)-2-(((2R,3S,4R,5S)-5-(2-chloro-4-((cyclopropylmethyl)amino)pyrrolo[2,1-f][1,2,4]triazin-7-yl)-3,4-dihydroxytetrahydrofuran-2-yl)methoxy)-3-hydroxypropan-2-yl)phosphonic acid]	≤ 0.5
O=P(O)(O)[C@](CO)(COCc1nn[nH]n1)OC[C@H]1O[C@@H](c2ccc3c(NC4CCCC4)nc(Cl)nn23)[C@H](O)[C@@H]1O [Example 16, ((R)-1-((2H-tetrazol-5-yl)methoxy)-2-(((2R,3S,4R,5S)-5-(2-chloro-4-(cyclopentylamino)pyrrolo[2,1-f][1,2,4]triazin-7-yl)-3,4-dihydroxytetrahydrofuran-2-yl)methoxy)-3-hydroxypropan-2-yl)phosphonic acid]	0.5 to 1
O=P(O)(O)[C@@](CO)(COCc1nn[nH]n1)OC[C@H]1O[C@@H](c2ccc3c(N[C@@H]4CCc5ccccc54)nc(Cl)nn23)[C@H](O)[C@@H]1O [Example 41, ((S)-1-((2H-tetrazol-5-yl)methoxy)-2-(((2R,3S,4R,5S)-5-(2-chloro-4-(((R)-2,3-dihydro-1H-inden-l-yl)amino)pyrrolo[2,1-f][1,2,4]triazin-7-yl)-3,4-dihydroxytetrahydrofuran-2-yl)methoxy)-3-hydroxypropan-2-yl)phosphonic acid]	≤ 0.5
O=P(O)(O)C(COCc1nnn[nH]1)(COCc1nnn[nH]1)OC[C@H]1O[C@@H](c2ccc3c(NC4CCCC4)nc(Cl)nn23)[C@H](O)[C@@H]1O [Example 28, (1,3-bis((1H-tetrazol-5-yl)methoxy)-2-(((2R,3S,4R,5S)-5-(2-chloro-4-(cyclopentylamino)pyrrolo[2,1-f][1,2,4]triazin-7-yl)-3,4-dihydroxytetrahydrofuran-2-yl)methoxy)propan-2-yl)phosphonic acid]	≤ 0.5
O=P(O)(O)[C@](COCc1nn[nH]n1)(COCC1CC1)OC[C@H]1O[C@@H](c2ccc3c(NC4CCCC4)nc(Cl)nn23)[C@H](O)[C@@H]1O [Example 35, ((S)-1-((2H-tetrazol-5-yl)methoxy)-2-(((2R,3S,4R,5S)-5-(2-chloro-4-(cyclopentylamino)pyrrolo[2,1-f][1,2,4]triazin-7-yl)-3,4-dihydroxytetrahydrofuran-2-yl)methoxy)-3-(cyclopropylmethoxy)propan-2-yl)phosphonic acid]	≤ 0.5
O=P(O)(O)[C@](CO)(COCc1nn[nH]n1)OC[C@H]1O[C@@H](c2ccc3c(NCC4CCC4)nc(Cl)nn23)[C@H](O)[C@@H]1O [Example 53, ((R)-1-((2H-tetrazol-5-yl)methoxy)-2-(((2R,3S,4R,5S)-5-(2-chloro-4-((cyclobutylmethyl)amino)pyrrolo[2,1-f][1,2,4]triazin-7-yl)-3,4-dihydroxytetrahydrofuran-2-yl)methoxy)-3-hydroxypropan-2-yl)phosphonic acid]	1 to 100
COC[C@@](Cc1nn[nH]n1)(OC[C@H]1O[C@@H](c2ccc3c(NC4CCCC4)nc(Cl)nn23)[C@H](O)[C@@H]1O)P(=O)(O)O [Example 4, ((S)-2-(((2R,3S,4R,5S)-5-(2-Chloro-4-(cyclopentylamino)pyrrolo[2,1-f][1,2,4]triazin-7-yl)-3,4-dihydroxytetrahydrofuran-2-yl)methoxy)-1-methoxy-3-(2H-tetrazol-5-yl)propan-2-yl)phosphonic acid]	1 to 100
O=P(O)(O)C(CO)(COCc1nn[nH]n1)OC[C@H]1O[C@@H](c2ccc3c(NC4CCCC4)nc(Cl)nn23)[C@H](O)[C@@H]1O (stereo partly drawn) [Example 20, (1-((2H-tetrazol-5-yl)methoxy)-2-(((2R,3S,4R,5S)-5-(2-chloro-4-(cyclopentylamino)pyrrolo[2,1-f][1,2,4]triazin-7-yl)-3,4-dihydroxytetrahydrofuran-2-yl)methoxy)-3-hydroxypropan-2-yl)phosphonic acid]	≤ 0.5

The next lines start with the values.

IC50 [nM]	SMILES
≤ 0.5	COC[C@](CO)(OC[C@H]1O[C@@H](c2ccc3c(NC4CCCC4)nc(Cl)nn23)[C@H](O)[C@@H]1O)P(=O)(O)O [Example 6, ((R)-2-(((2R,3S,4R,5S)-5-(2-Chloro-4-(cyclopentylamino)pyrrolo[2,1-f][1,2,4]triazin-7-yl)-3,4-dihydroxytetrahydrofuran-2-yl)methoxy)-1-hydroxy-3-methoxypropan-2-yl)phosphonic acid]
1 to 100	C[C@](CO)(OC[C@H]1O[C@@H](c2ccc3c(NC4CCCC4)nc(Cl)nn23)[C@H](O)[C@@H]1O)P(=O)(O)O [Example 33, ((S)-2-(((2R,3S,4R,5S)-5-(2-chloro-4-(cyclopentylamino)pyrrolo[2,1-f][1,2,4]triazin-7-yl)-3,4-dihydroxytetrahydrofuran-2-yl)methoxy)-1-hydroxypropan-2-yl)phosphonic acid]
0.5 to 1	O=C(O)COCC(CO)(OC[C@H]1O[C@@H](c2ccc3c(NC4CCCC4)nc(Cl)nn23)[C@H](O)[C@@H]1O)P(=O)(O)O (stereo partly drawn) [Example 23, 2-(2-(((2R,3S,4R,5S)-5-(2-chloro-4-(cyclopentylamino)pyrrolo[2,1-f][1,2,4]triazin-7-yl)-3,4-dihydroxytetrahydrofuran-2-yl)methoxy)-3-hydroxy-2-phosphonopropoxy)acetic acid]
≤ 0.5	COC[C@](C)(OC[C@H]1O[C@@H](c2ccc3c(NC4CCCC4)nc(Cl)nn23)[C@H](O)[C@@H]1O)P(=O)(O)O [Example 32, ((R)-2-(((2R,3S,4R,5S)-5-(2-chloro-4-(cyclopentylamino)pyrrolo[2,1-f][1,2,4]triazin-7-yl)-3,4-dihydroxytetrahydrofuran-2-yl)methoxy)-1-methoxypropan-2-yl)phosphonic acid]
